# Measurements from patent US20240294551A1 (AMGEN INC., priority 2022, published 2024).
# Where two headings read alike, the source gives them in different places.
# Tests used:
# [1] = target: His-tagged KRAS G12D protein (Homo sapiens (Human), UniProt P01116, G12D); assay: KRAS G12D TR-FRET Assay; assay type: binding
# In short: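 Each incubation ran at room temperature: enzyme with compound for 30 minutes, peptide for one hour, and detection reagents (0.4 nM europium anti-6×His, 5 nM streptavidin-d2) for one hour more. Protein and peptide stocks were each diluted to 20 nM before addition.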
# [2] = target: GDP-bound KRAS protein (aa 1-169), containing both G12D and C118A amino acid substitutions (Homo sapiens (Human), UniProt P01116, C118A/G12D); assay: KRAS G12D Coupled Nucleotide Exchange Assay; assay type: biochemical
# GDP-bound KRAS protein (aa 1-169), containing both G12D and C118A amino acid substitutions, sequence (P01116 other isoform, or with tags, fused parts or gaps G12D/C118A): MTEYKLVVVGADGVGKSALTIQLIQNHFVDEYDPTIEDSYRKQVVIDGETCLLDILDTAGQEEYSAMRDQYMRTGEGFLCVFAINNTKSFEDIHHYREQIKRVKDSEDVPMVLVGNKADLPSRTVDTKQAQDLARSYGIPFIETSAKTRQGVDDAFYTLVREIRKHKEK
# [3] = system: Phosphorylation of ERK1/2 in AsPC-1 cells; assay: Phospho-ERK1/2 MSD Assay; assay type: cell-based, human
# In short: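 Read-out: MSD electrochemiluminescent detection of phosphorylated ERK1/2 in whole-cell lysates, fitted to a 4-parameter logistic curve for IC50. Prior to lysis, AsPC-1 cells (25,000 per well) received a 2 h compound dose-response at 37 °C.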
# AsPC-1 cells = assay: AsPC-1 CTG Assay (CellTiter-Glo cell viability); assay type: cell-based, human; conditions: first value of the cell, read-out: G12D/C/V Cell Proliferation CTG (72 h) AsPC-1
# In short: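 IC50 values derive from 4-parameter logistic fits of CellTiter-Glo luminescence, expressed relative to DMSO. Compound dilution series were applied to overnight-seeded AsPC-1 or SW620 cells (RPMI 1640, 10% FBS) for 72 h at 37 °C, 5% CO2.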
# [4] = read-out: KRAS G12D Binding IC50
# [5] = read-out: KRAS G12D Coupled Exchange IC50
# [6] = 2 h, read-out: 2 h p-ERK (AsPC-1 cells), IC50
# [7] = Homo sapiens, ASPC1, 2 h, read-out: 2 h p-ERK (AsPC-1 cells), IC50
# [8] = Homo sapiens, ASPC1, 72 h, AsPC-1, 72 h
# [9] = TR-FRET, read-out: KRAS G12D Binding
# [10] = 2 hours compound pre-incubation, read-out: KRAS G12D Coupled Exchange
# [11] = Homo sapiens, ASPC1, 2 h, read-out: 2 h p-ERK (AsPC-1 cells)
# [12] = Homo sapiens, ASPC1, 72 h, AsPC-1 cells (G12D), 72 h
# His-tagged KRAS G12D protein, sequence (P01116 other isoform, or with tags, fused parts or gaps G12D): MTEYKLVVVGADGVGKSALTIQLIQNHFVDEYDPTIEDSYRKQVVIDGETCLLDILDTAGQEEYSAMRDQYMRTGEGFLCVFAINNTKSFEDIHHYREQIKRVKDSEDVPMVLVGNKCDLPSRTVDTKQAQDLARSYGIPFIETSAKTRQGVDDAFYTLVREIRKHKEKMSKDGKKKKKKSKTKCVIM
SMILES,"IC50 [1, 4] [µM]","IC50 [2, 5] [µM]","IC50 [3, 6] [µM]","IC50 (AsPC-1 cells; AsPC-1, 72 h) [µM]","IC50 [3, 7] [µM]",IC50 (AsPC-1 cells; [8]) [µM],"IC50 [1, 9] [µM]","IC50 [2, 10] [µM]","IC50 [3, 11] [µM]",IC50 (AsPC-1 cells; [12]) [µM]
"O[C@@H]1C[C@@H]2CN(C1)c1nc(OC[C@@]34CCCN3C[C@H](F)C4)nc3c(F)c(ncc13)-c1c(c(Cl)cc3[nH]ncc13)CCCn1ncc2n1 (single isomer, unassigned) [Example 300]",0.01,0.005,0.0232,0.281,–,–,–,–,–,–
"Cc1cc2[nH]ncc2c2c1CCCOC(=O)N[C@]1(C)CCCCN(C1)c1nc(OC[C@@]34CCCN3C[C@H](F)C4)nc3c(F)c-2ncc13 [Example 292, (26R)-32-fluoro-4-(((2R,7aS)-2-fluorotetrahydro-1H-pyrrolo[1,2-a]pyrrol-7a(5H)-yl)methoxy)-18,26-dimethyl-23-oxa-1,3,5,9,14,15,25-heptaazahexacyclo[24.4.1.1~6,10~.0~2,7~.0~11,19~.0~12,16~]dotriaconta-2,4,6(32),7,9,11,13,16,18-nonaen-24-one]",0.004,0.002,–,–,0.0171,0.178,–,–,–,–
O=C1CCCCc2c(Cl)cc3[nH]ncc3c2-c2ncc3c(nc(OC[C@@]45CCCN4C[C@H](F)C5)nc3c2F)N2CC3CCN1C(C3)C2 (stereo partly drawn) [Example 269],0.016,0.011,–,–,0.25,0.606,–,–,–,–
O=C1OCCC2CCc3cc4[nH]ncc4c(c32)-c2ncc3c(nc(OC[C@@]45CCCN4C[C@H](F)C5)nc3c2F)N2CCC[C@H](C2)O1 (stereo partly drawn) [Example 125],0.009,0.005,–,–,0.066,0.41,–,–,–,–
CC12CCCN(C1)c1nc(OC[C@@]34CCCN3C[C@H](F)C4)nc3c(F)c(ncc13)-c1cccc3ccc(F)c(c13)CCOC(=O)N2 (mixture of isomers) [Example 76],0.015,0.009,–,–,0.82,1.71,–,–,–,–
Cc1cc2[nH]ncc2c2c1CCCOC(=O)CC1CCCN(C1)c1nc(OC[C@@]34CCCN3C[C@H](F)C4)nc3c(F)c-2ncc13 (stereo partly drawn) [Example 39],0.012,0.008,0.016,0.191,–,–,–,–,–,–
Fc1c2ncc3c(nc(OC[C@@]45CCCN4C[C@H](F)C5)nc13)N1CCCCC(C1)c1noc(n1)CCCc1c(Cl)cc3[nH]ncc3c1-2 (mixture of isomers) [Example 382],–,–,–,–,–,–,0.005,0.003,0.0168,1.48
"Cc1cc2[nH]ncc2c2c1CCCCC(=O)N[C@]1(C)CCCN(C1)c1nc(OC[C@@]34CCCN3C[C@H](F)C4)nc3c(F)c-2ncc13 [Example 20, (17R)-30-Fluoro-24-(((2R,7aS)-2-fluorotetrahydro-1H-pyrrolo[1,2-a]pyrrol-7a(5H)-yl)methoxy)-9,17-dimethyl-5,6,16,21,23,25,29-heptaazahexacyclo[24.3.1.1˜17,21˜.0˜2,10˜.0˜3,7˜.0˜22,27˜]hentriaconta-1(30),2,4,7,9,22,24,26,28-nonaen-15-one bis(2,2,2-trifluoroacetate)]",0.02,0.022,–,–,0.823,2.22,–,–,–,–
"Cc1cc2[nH]ncc2c2c1CCCCC(=O)N[C@@H]1CCCCN(C1)c1nc(OC[C@@]34CCCN3C[C@H](F)C4)nc3c(F)c-2ncc13 [Example 54, (26R)-32-fluoro-4-(((2R,7aS)-2-fluorotetrahydro-1H-pyrrolo[1,2-a]pyrrol-7a(5H)-yl)methoxy)-18-methyl-1,3,5,9,14,15,25-heptaazahexacyclo[24.4.1.1~6,10~.0~2,7~.0~11,19~.0~12,16~]dotriaconta-2,4,6,8,10(32),11,13,16,18-nonaen-24-one]",0.006,0.003,–,–,0.135,1.64,–,–,–,–
"O=C1OCCc2c(Cl)cc3[nH]ncc3c2-c2cc3nc(OC[C@@]45CCCN4C[C@H](F)C5)nc(c3cn2)N2CCC[C@]3(C2)C[C@H](C3)O1 [Example 343, (1R,3S)-10-chloro-24-(((2R,7aS)-2-fluorotetrahydro-1H-pyrrolo[1,2-a]pyrrol-7a(5H)-yl)methoxy)-4,6-dioxa-13,14,19,23,25,27-hexaazaheptacyclo[25.3.1.1~1,3~.1~18,22~.0~9,17~.0~12,16~.0~21,26~]tritriaconta-9,11,14,16,18(32),19,21,23,25-nonaen-5-one]",0.022,0.013,–,–,0.0452,0.953,–,–,–,–
"O=C1CCCCc2c(Cl)cc3[nH]ncc3c2-c2ncc3c(nc(OC[C@@]45CCCN4C[C@H](F)C5)nc3c2F)N2CCC[C@]3(C2)C[C@H](C3)N1 [Example 273, (1S,3R)-11-chloro-33-fluoro-25-(((2R,7aS)-2-fluorotetrahydro-1H-pyrrolo[1,2-a]pyrrol-7a(5H)-yl)methoxy)-4,14,15,20,24,26,28-heptaazaheptacyclo[26.3.1.1~1,3~.1~19,23~.0~10,18~.0~13,17~.0~22,27~]tetratriaconta-10,12,15,17,19(33),20,22,24,26-nonaen-5-one]",0.003,0.002,–,–,1.1,5,–,–,–,–
"CN(C)CC1(COc2nc3c4cnc(c(F)c4n2)-c2c(c(Cl)cc4[nH]ncc24)CCCCO[C@H]2C[C@]4(CCCN3C4)C2)CC1 [Example 405, 1-(1-((((1S,3R)-10-chloro-32-fluoro-4-oxa-13,14,19,23,25,27-hexaazaheptacyclo[25.3.1.1~1,3~.1~18,22~.0~9,17~.0~12,16~.0~21,26~]tritriaconta-9,11,14,16,18(32),19,21,23,25-nonaen-24-yl)oxy)methyl)cyclopropyl)-N,N-dimethylmethanamine]",–,–,–,–,–,–,0.005,0.004,0.0412,0.174
"O[C@]12C[C@@]3(CCCN(C3)c3nc(OC[C@@]45CCCN4C[C@H](F)C5)nc4c(F)c(ncc34)-c3c(c(Cl)cc4[nH]ncc34)CCc3cnc1o3)C2 [Example 396, (1S,3R)-11-chloro-33-fluoro-25-(((2R,7aS)-2-fluorotetrahydro-1H-pyrrolo[1,2-a]pyrrol-7a(5H)-yl)methoxy)-34-oxa-5,14,15,20,24,26,28-heptaazaoctacyclo[26.3.1.1~1,3~.1~4,7~.1~19,23~.0~10,18~.0~13,17~.0~22,27~]pentatriaconta-4,6,10,12,15,17,19(33),20,22,24,26-undecaen-3-ol]",–,–,–,–,–,–,0.007,0.003,0.0012,0.002
Fc1c2ncc3c(nc(OC[C@@]45CCCN4C[C@H](F)C5)nc13)N1CCC[C@@H](COCCCCc3c(Cl)cc4[nH]ncc4c3-2)C1 [Example 138],0.004,0.002,–,–,0.013,5,–,–,–,–
"Cc1cc2[nH]ncc2c2c1CCC[C@H](O)CC[C@H]1CCCN(C1)c1nc(OC[C@@]34CCCN3C[C@H](F)C4)nc3c(F)c-2ncc13 [Example 238, (14S,17R)-30-fluoro-24-(((2R,7aS)-2-fluorotetrahydro-1H-pyrrolo[1,2-a]pyrrol-7a(5H)-yl)methoxy)-9-methyl-5,6,21,23,25,29-hexaazahexacyclo[24.3.1.1˜17,21˜.0˜2,10˜.0˜3,7˜.0˜22,27˜]hentriaconta-1(30),2,4,7,9,22,24,26,28-nonaen-14-ol]",0.045,0.024,–,–,0.861,5,–,–,–,–
